According to US20050209278A1, “Piperidinyl- and piperazinyl-sulfonylmethyl hydroxamic acids and their use as protease inhibitors” (priority 2002, published 2005):
Where a name gives a salt, the structure may show the parent alone. Read-outs that look alike come from different tables or passages of the source.

What was measured:
Format in all cases: biochemical
[1] = target: T1, MMP-1 (Homo sapiens, UniProt P03956); assay: MMP-1 inhibition (in vitro Ki)
T1 construct: made in house; host or cells: MMP-1-transfected HT-1080 cells (spent media)
T1 sequence (P03956 100-469): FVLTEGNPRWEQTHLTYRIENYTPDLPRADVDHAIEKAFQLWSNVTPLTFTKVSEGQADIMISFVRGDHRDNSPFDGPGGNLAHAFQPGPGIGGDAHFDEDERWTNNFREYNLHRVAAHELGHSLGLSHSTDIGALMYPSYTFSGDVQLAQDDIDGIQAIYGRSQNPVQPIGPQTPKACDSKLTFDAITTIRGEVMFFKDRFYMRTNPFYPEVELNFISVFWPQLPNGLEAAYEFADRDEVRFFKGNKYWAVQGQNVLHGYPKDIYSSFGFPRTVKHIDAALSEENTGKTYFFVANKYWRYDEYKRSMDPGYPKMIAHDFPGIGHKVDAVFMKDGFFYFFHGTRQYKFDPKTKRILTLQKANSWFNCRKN

[2] = target: T2, MMP-9 (Homo sapiens, UniProt P14780); assay: MMP-9 inhibition (in vitro Ki)
T2 construct: made in house; host or cells: MMP-9-transfected HT1080 cells (spent media)
T2 sequence (P14780 107-707 limits assumed): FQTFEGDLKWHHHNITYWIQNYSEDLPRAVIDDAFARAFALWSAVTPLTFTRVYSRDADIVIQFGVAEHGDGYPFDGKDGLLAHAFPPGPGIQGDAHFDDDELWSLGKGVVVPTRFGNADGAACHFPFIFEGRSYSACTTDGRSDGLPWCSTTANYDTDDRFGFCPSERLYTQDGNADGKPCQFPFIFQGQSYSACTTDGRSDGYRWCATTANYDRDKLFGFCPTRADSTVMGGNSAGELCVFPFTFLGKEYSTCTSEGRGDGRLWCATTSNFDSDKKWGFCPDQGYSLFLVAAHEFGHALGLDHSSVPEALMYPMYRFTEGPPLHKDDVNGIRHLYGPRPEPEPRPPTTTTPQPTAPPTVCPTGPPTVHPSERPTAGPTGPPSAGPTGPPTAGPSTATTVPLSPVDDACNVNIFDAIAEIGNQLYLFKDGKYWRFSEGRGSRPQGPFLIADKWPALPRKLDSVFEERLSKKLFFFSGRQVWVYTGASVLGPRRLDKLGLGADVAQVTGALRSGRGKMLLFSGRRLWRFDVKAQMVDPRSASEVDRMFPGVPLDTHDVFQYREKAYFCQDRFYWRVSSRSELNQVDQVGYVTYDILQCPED

[3] = target: T3, MMP-2 (Homo sapiens, UniProt P08253); assay: MMP-2 inhibition (in vitro Ki)
T3 construct: made in house; host or cells: MMP-2-transfected p2AHT2 cells
T3 sequence (P08253 110-660): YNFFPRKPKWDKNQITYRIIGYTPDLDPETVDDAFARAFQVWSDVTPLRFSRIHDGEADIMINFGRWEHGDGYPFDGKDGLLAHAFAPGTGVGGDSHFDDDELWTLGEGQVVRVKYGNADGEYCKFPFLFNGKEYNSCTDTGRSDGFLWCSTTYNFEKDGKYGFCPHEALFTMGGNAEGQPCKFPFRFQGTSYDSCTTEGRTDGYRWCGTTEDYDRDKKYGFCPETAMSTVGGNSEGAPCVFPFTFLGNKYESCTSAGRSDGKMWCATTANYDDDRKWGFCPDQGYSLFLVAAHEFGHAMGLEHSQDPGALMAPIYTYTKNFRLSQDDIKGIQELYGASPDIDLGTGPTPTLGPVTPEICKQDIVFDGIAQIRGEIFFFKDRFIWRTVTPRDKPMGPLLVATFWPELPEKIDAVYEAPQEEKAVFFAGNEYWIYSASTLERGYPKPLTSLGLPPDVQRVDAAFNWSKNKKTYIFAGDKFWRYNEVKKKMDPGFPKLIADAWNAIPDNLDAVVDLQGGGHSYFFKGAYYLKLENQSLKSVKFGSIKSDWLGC

[4] = target: T4, MMP-14 (Homo sapiens, UniProt P50281); assay: MMP-14 inhibition (in vitro Ki)
T4 construct: The catalytic domain enzyme was expressed in E. coli inclusion bodies, solubilized in urea; made in house

[5] = target: T5, MMP-13 (Homo sapiens, UniProt P45452); assay: MMP-13 inhibition (in vitro Ki)
T5 construct: made in house; host or cells: baculovirus / insect cells

[6] = Table 9, read-out: MMP-1 Ki (IC-50)
[7] = Table 9, read-out: MMP-9 Ki (IC-50)
[8] = Table 9, read-out: MMP-2 Ki (IC-50)
[9] = Table 9, read-out: MMP-14 Ki (IC-50)
[10] = Table 9, read-out: MMP-13 Ki (IC-50)

Ki ([1]; Table 8, read-out: MMP-1 Ki)	Ki ([2]; Table 8, read-out: MMP-9 Ki)	Ki ([3]; Table 8, read-out: MMP-2 Ki)	Ki ([4]; Table 8, read-out: MMP-14 Ki)	Ki ([5]; Table 8, read-out: MMP-13 Ki)	Ki [1, 6]	Ki [2, 7]	Ki [3, 8]	Ki [4, 9]	Ki [5, 10]	SMILES	other results
2470 nM	0.15 nM	0.47 nM	1010 nM	0.14 nM						O=C(NO)C1(S(=O)(=O)N2CCC(c3ccc(CCC(F)(F)C(F)(F)F)cn3)CC2)CCCCC1 [Example A56, N-hydroxy-1-({4-[5-(3,3,4,4,4-pentafluorobutyl)pyridin-2-yl]piperidin-1-yl}sulfonyl)cyclohexanecarboxamide Hydrochloride]	
					6150 nM	501 nM	228 nM	> 10000 nM	0.41 nM	O=C(/C=C/C=C/C1CCN(S(=O)(=O)C2(C(=O)NO)CCOCC2)CC1)N1CCc2ccccc2C1 [Example A75]	
					1840 nM	3.99 nM	2.65 nM	8580 nM	1.91 nM	CCCC(=O)c1ccc(C2CCN(S(=O)(=O)C3(C(=O)NO)CCOCC3)CC2)nc1 [Example A159]	
					8300 nM	26.8 nM	0.6 nM	3720 nM	0.42 nM	COCC(=O)N1CCC(C(=O)NO)(S(=O)(=O)N2CCC(c3ccc(CCC(F)(F)C(F)(F)F)cn3)CC2)CC1 [Example A109]	
					2970 nM	0.223 nM	0.513 nM	1670 nM	0.474 nM	O=C(NO)C1(S(=O)(=O)N2CCC(c3ccc(CCC(F)F)cn3)CC2)CCOCC1 [Example A161]	
					> 10000 nM	1.09 nM	0.39 nM	3350 nM	0.22 nM	O=C(NO)C1(S(=O)(=O)N2CCN(c3ccc(CCC(F)(F)C(F)(F)F)cn3)CC2)CCOCC1 [Example A190]	
					8890 nM	96.1 nM	2.35 nM	1300 nM	2.1 nM	N#Cc1ccc(N2CCN(S(=O)(=O)C3(C(=O)NO)CCOCC3)CC2)cc1F [Example A180]	
										COCCC(C(=O)NO)S(=O)(=O)N1CCC(Oc2ccc(SC(F)(F)F)cc2)CC1 (stereo not shown) [Example B3, N-hydroxy-4-methoxy-2-[(4-{4-[(trifluoromethyl)thio]phenoxy}piperidin-1-yl)sulfonyl]butanamide]	Ki ([1]; Table 10, read-out: MMP-1 Ki): > 10000 nM; Ki ([2]; Table 10, read-out: MMP-9 Ki): 0.332 nM; Ki ([3]; Table 10, read-out: MMP-2 Ki): 0.791 nM; Ki ([4]; Table 10, read-out: MMP-14 Ki): 1950 nM; Ki ([5]; Table 10, read-out: MMP-13 Ki): 0.985 nM
6710 nM	0.3 nM	0.97 nM	690 nM	0.3 nM						O=C(NO)C1(S(=O)(=O)N2CCC(CCCCCOCCC(F)(F)F)CC2)CCOCC1 [Example A37, 4-{4-[5-(3,3,3-Trifluoro-propoxy)-pentyl]-piperidine-1-sulfonyl}-tetrahydro-pyran-4-carboxylic Acid Hydroxyamide]	
					9770 nM	0.738 nM	2.88 nM	5390 nM	1.82 nM	O=C(NO)C(CC1CC1)(CC1CC1)S(=O)(=O)N1CCC(c2ccc(CCC(F)(F)F)cn2)CC1 [Example A84]	
4450 nM	0.07 nM	0.66 nM	1350 nM	0.22 nM						O=C(NO)C1(S(=O)(=O)N2CCC(c3cnc(OCCC4CC4)cn3)CC2)CCOCC1 [Example A67, 4-({4-[5-(2-cyclopropylethoxy)pyrazin-2-yl]piperidin-1-yl}sulfonyl)-N-hydroxytetrahydro-2H-pyran-4-carboxamide]	
> 10000 nM	3.1 nM	3.81 nM	6740 nM	2.87 nM						O=C(NO)C1(S(=O)(=O)N2CCC(OCCCCCC(F)(F)F)CC2)CCOCC1 [Example A49, 4-[4-(6,6,6-trifluoro-hexyloxy)-piperidine-1-sulfonyl]-tetrahydro-pyran-4-carboxylic Acid Hydroxyamide]	
5110 nM	1.01 nM	0.27 nM	1260 nM	0.27 nM						O=C(NO)C1(S(=O)(=O)N2CCC(CCCCCCC(F)(F)C(F)(F)F)CC2)CCOCC1 [Example A51, 4-[4-(7,7,8,8,8-pentafluoro-octyl)-piperidine-1-sulfonyl]-tetrahydro-pyran-4-carboxylic Acid Hydroxyamide]	
					> 10000 nM	2.94 nM	36.5 nM	> 10000 nM	2.54 nM	O=C(NO)C1(S(=O)(=O)N2CCC(F)(c3ccc(CCCC(F)(F)F)cn3)CC2)CCOCC1 [Example A157]	
					7050 nM	0.52 nM	0.38 nM	985 nM	0.41 nM	O=C(NO)C1(S(=O)(=O)N2CCN(c3ccc(CCC(F)(F)F)cn3)CC2)CCOCC1 [Example A184]	
					5410 nM	0.94 nM	0.38 nM	1150 nM	0.8 nM	O=C(NO)C1(S(=O)(=O)N2CCN(c3nnn(Cc4ccccc4)n3)CC2)CCOCC1 [Example A114]	
					> 10000 nM	1780 nM	356 nM	> 10000 nM	6.79 nM	O=C(/C=C/C=C/C1CCN(S(=O)(=O)C2(C(=O)NO)CCOCC2)CC1)N1CCN(c2ccccc2)CC1 [Example A76]	
					2580 nM	3800 nM	781 nM	> 10000 nM	5.08 nM	CC(C)CN(C)C(=O)CCCCC1CCN(S(=O)(=O)C2(C(=O)NO)CCOCC2)CC1 [Example A91]	
					> 10000 nM	12.6 nM	8.71 nM	1700 nM	8.86 nM	O=C(NO)C1(S(=O)(=O)N2CCC(c3ccc(-n4cccn4)cn3)CC2)CCOCC1 [Example A194]	
					927 nM	107 nM	17.2 nM	> 10000 nM	0.01 nM	O=C(CCCCC1CCN(S(=O)(=O)C2(C(=O)NO)CCOCC2)CC1)N1Cc2ccccc2C1 [Example A87]	
					1720 nM	1.69 nM	1.1 nM	42.7 nM	0.95 nM	O=C(NO)C1(S(=O)(=O)N2CCC(CCc3ccccc3)CC2)CCOCC1 [Example A185]	
4580 nM	2.25 nM	0.72 nM	1190 nM	0.52 nM						CCOCCCCCC1CCN(S(=O)(=O)C2(C(=O)NO)CCOCC2)CC1 [Example A38, 4-[4-(5-ethoxy-pentyl)-piperidine-1-sulfonyl]-tetrahydro-pyran-4-carboxylic Acid Hydroxyamide]	
					> 10000 nM	1030 nM	243 nM	> 10000 nM	19.8 nM	O=C(CCCCN1CCN(S(=O)(=O)C2(C(=O)NO)CCOCC2)CC1)c1ccc(OC(F)(F)F)cc1 [Example A150]	
					7630 nM	7.97 nM	2.13 nM	2270 nM	0.376 nM	O=C(NO)C1(S(=O)(=O)N2CCC(c3ccc(CCc4ccsc4)cn3)CC2)CCOCC1 [Example A95]	
> 10000 nM	1.79 nM	8.38 nM	7210 nM	7.95 nM						CCCCCCOCC1CCN(S(=O)(=O)C2(C(=O)NO)CCOCC2)CC1 [Example A41, 4-(4-hexyloxymethyl-piperidine-1-sulfonyl)-tetrahydro-pyran-4-carboxylic Acid Hydroxyamide]	

SMILES	Ki ([1]; Table 8, read-out: MMP-1 Ki)	Ki ([2]; Table 8, read-out: MMP-9 Ki)	Ki ([3]; Table 8, read-out: MMP-2 Ki)	Ki ([4]; Table 8, read-out: MMP-14 Ki)	Ki ([5]; Table 8, read-out: MMP-13 Ki)	Ki [1, 6]	Ki [2, 7]	Ki [3, 8]	Ki [4, 9]	Ki [5, 10]	other results
CCCCOCCC1CCN(S(=O)(=O)C2(C(=O)NO)CCOCC2)CC1 [Example A44, 4-[4-(2-butoxy-ethyl)-piperidine-1-sulfonyl]-tetrahydro-pyran-4-carboxylic Acid Hydroxyamide]	> 10000 nM	12.5 nM	27.3 nM	> 10000 nM	38.2 nM						
